From ChEMBL document CHEMBL4616673 (J Med Chem, 2020)
Converted amounts (≈) assume the structure as drawn.

Columns and labels:
[1] = molecular target: T1, Dihydroorotate dehydrogenase (quinone), mitochondrial (Homo sapiens, UniProt Q02127); assay: Inhibition of human DHODH using dihydroorotate as substrate and CoQ10 as co-substrate preincubated for 30 mins followed by substrate addition by DCIP coupled microplate reader assay
[2] = Solubility of the compound in PBS; assay type: physicochemical
[3] = system: A-375; assay: Antiproliferative activity against human A375 cells assessed as reduction in cell viability measured after 48 hrs by MTT assay; assay type: functional, cell-based; settings: Homo sapiens, A-375, 48 h
[4] = system: HCT-116; assay: Antiproliferative activity against human HCT116 cells assessed as reduction in cell viability measured after 48 hrs by MTT assay; assay type: functional, cell-based; settings: Homo sapiens, HCT-116, 48 h
[5] = system: HeLa; assay: Antiproliferative activity against human HeLa cells assessed as reduction in cell viability measured after 48 hrs by MTT assay; assay type: functional, cell-based; settings: Homo sapiens, HeLa, 48 h
[6] = system: A549; assay: Antiproliferative activity against human A549 cells assessed as reduction in cell viability measured after 48 hrs by MTT assay; assay type: functional, cell-based; settings: Homo sapiens, A549, 48 h
[7] = system: MCF7; assay: Antiproliferative activity against human MCF7 cells assessed as reduction in cell viability measured after 48 hrs by MTT assay; assay type: functional, cell-based; settings: Homo sapiens, MCF7, 48 h
[8] = system: Raji; assay: Antiproliferative activity against human Raji cells assessed as reduction in cell viability measured after 48 hrs by MTT assay; assay type: functional, cell-based; settings: Homo sapiens, Raji, 48 h
[9] = system: K562; assay: Antiproliferative activity against human K562 cells assessed as reduction in cell viability measured after 48 hrs by MTT assay; assay type: functional, cell-based; settings: Homo sapiens, K562, 48 h
[10] = system: NAMALVA; assay: Antiproliferative activity against human NAMALWA cells assessed as reduction in cell viability measured after 48 hrs by MTT assay; assay type: functional, cell-based; settings: Homo sapiens, NAMALVA, 48 h
[11] = molecular target: T1, Dihydroorotate dehydrogenase (quinone), mitochondrial; assay: Inhibition of recombinant human DHODH expressed in baculovirus infected insect cells using dihydroorotate as substrate and decylubiquinone as co-substrate by 2,6-dichlorophenol-indophenol-coupled spectrophotometric analysis
[12] = Competitive inhibition of Plasmodium falciparum DHODH

T1 sequence (Q02127 whole entry): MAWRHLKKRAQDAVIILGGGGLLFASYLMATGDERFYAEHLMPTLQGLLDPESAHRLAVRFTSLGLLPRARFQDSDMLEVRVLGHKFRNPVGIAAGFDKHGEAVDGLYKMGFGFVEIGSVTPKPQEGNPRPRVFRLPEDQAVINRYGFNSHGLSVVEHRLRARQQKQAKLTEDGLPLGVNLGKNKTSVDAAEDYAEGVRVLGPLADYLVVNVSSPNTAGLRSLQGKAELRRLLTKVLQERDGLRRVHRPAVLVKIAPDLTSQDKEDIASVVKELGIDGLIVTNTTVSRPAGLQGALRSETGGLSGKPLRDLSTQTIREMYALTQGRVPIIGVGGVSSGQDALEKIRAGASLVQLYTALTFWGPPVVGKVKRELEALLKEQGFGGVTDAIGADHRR

Row | SMILES | IC50 [1] | IC50 [3] | IC50 [4] | IC50 [5] | IC50 [6] | IC50 [7] | IC50 [8] | IC50 [9] | IC50 [10] | also measured
1 | Fc1ccccc1-c1c(F)cc(-n2cc(-c3ccccc3)nn2)cc1F | > 1000 nM | – | – | – | – | – | – | – | – | –
2 | O=C1c2ccccc2C(=O)c2c1nnn2-c1ccc(-c2ccncc2)cc1 | > 1000 nM | – | – | – | – | – | – | – | – | –
3 | O=C1c2ccccc2C(=O)c2c1nnn2-c1ccc(-c2cncnc2)cc1 | > 1000 nM | – | – | – | – | – | – | – | – | –
4 | O=C1c2ccccc2C(=O)c2c1nnn2-c1ccc(-c2cc(C(F)(F)F)cc(C(F)(F)F)c2)cc1 | > 1000 nM | – | – | – | – | – | – | – | – | –
5 | OC1c2ccccc2C(O)c2c1nnn2-c1cc(F)c(-c2ccccc2F)c(F)c1 (configuration not stated) | 5.1 nM | 160 nM | 580 nM | > 10000 nM | > 10000 nM | > 10000 nM | > 10000 nM | > 10000 nM | > 10000 nM | solubility [2]: < 10 µg/mL
6 | COC(=O)Cc1cccc(-c2c(F)cc(-n3nnc4c3C(=O)c3ccccc3C4=O)cc2F)c1 | 4.6 nM | 420 nM | 1610 nM | > 10000 nM | > 10000 nM | > 10000 nM | 3760 nM | 2410 nM | > 10000 nM | solubility [2]: < 10 µg/mL
7 | O=C1c2ccccc2C(=O)c2c1nnn2-c1ccc2ccccc2c1 | > 1000 nM | – | – | – | – | – | – | – | – | –
8 | Cc1cc(-n2nnc3c2C(=O)c2ccccc2C3=O)ccc1F | > 1000 nM | – | – | – | – | – | – | – | – | –
9 | O=C1c2ccccc2C(=O)c2c1nnn2-c1ccccc1C(F)(F)F | > 1000 nM | – | – | – | – | – | – | – | – | –
10 | O=C1c2ccccc2C(=O)c2c1nnn2-c1ccnc(Cl)c1 | > 1000 nM | – | – | – | – | – | – | – | – | –
11 | O=C1c2ccccc2C(=O)c2c1nnn2-c1nc2ccccc2[nH]1 | > 1000 nM | – | – | – | – | – | – | – | – | –
12 | O=C1c2ccccc2C(=O)c2c1nnn2-c1ccc(-c2cccnc2)cc1 | 422 nM | – | – | – | – | – | – | – | – | –
13 | CC(C)c1ccc(-c2c(F)cc(-n3nnc4c3C(=O)c3ccccc3C4=O)cc2F)cc1 | 76 nM | – | – | – | – | – | – | – | – | –
14 | O=C1c2ccccc2C(=O)c2c1nnn2-c1ccc(-c2ccccc2O)cc1 | 230 nM | – | – | – | – | – | – | – | – | –
15 | CC(C)c1ccc(-c2ccc(-n3nnc4c3C(=O)c3ccccc3C4=O)c(F)c2)cc1 | > 1000 nM | – | – | – | – | – | – | – | – | –
16 | O=C1C(O)=C(CC=C(Cl)Cl)C(=O)c2ccccc21 | – | – | – | – | – | – | – | – | – | IC50 [11]: 67 nM
17 | O=C1c2ccccc2C(=O)c2c1nnn2-c1ccc(-c2ccccc2)cc1 | 19 nM | 5830 nM | 4230 nM | > 10000 nM | > 10000 nM | > 10000 nM | 4610 nM | > 10000 nM | 1870 nM | –
18 | O=C1C(O)=C([C@H]2CC[C@H](c3ccc(Cl)cc3)CC2)C(=O)c2ccccc21 [ATOVAQUONE] | – | – | – | – | – | – | – | – | – | Ki [12]: 27000 nM
19 | COCc1cccc(-c2c(F)cc(-n3nnc4c3C(=O)c3ccccc3C4=O)cc2F)c1 | 1.6 nM | 180 nM | 1130 nM | > 10000 nM | > 10000 nM | > 10000 nM | 1230 nM | > 10000 nM | > 10000 nM | solubility [2]: < 10 µg/mL
20 | O=C1c2ccccc2C(=O)c2c1nnn2-c1cc(F)c(-c2cccc(CO)c2)c(F)c1 | 1.2 nM | 30 nM | 2210 nM | > 10000 nM | > 10000 nM | > 10000 nM | 3310 nM | > 10000 nM | > 10000 nM | solubility [2]: 14.6 µg/mL (≈ 35 µM)
21 | Nc1ccccc1-c1ccc(-n2nnc3c2C(=O)c2ccccc2C3=O)cc1 | 20 nM | 1930 nM | 2300 nM | > 10000 nM | > 10000 nM | > 10000 nM | 3840 nM | 2160 nM | 5050 nM | –
22 | Nc1cccc(-c2ccc(-n3nnc4c3C(=O)c3ccccc3C4=O)cc2)c1 | 3.1 nM | 250 nM | 880 nM | > 10000 nM | > 10000 nM | > 10000 nM | 1360 nM | > 10000 nM | > 10000 nM | solubility [2]: < 10 µg/mL
23 | O=C1c2ccccc2C(=O)c2c1nnn2-c1ccc(-c2ccccc2F)cc1 | 4.5 nM | 2980 nM | 3330 nM | > 10000 nM | > 10000 nM | > 10000 nM | 2230 nM | 1870 nM | 2790 nM | solubility [2]: < 10 µg/mL
24 | O=C(c1ccccc1)c1cn(-c2cc(F)c(-c3ccccc3F)c(F)c2)nn1 | > 1000 nM | – | – | – | – | – | – | – | – | –
25 | O=C1CCCc2c1nnn2-c1cc(F)c(-c2ccccc2F)c(F)c1 | > 1000 nM | – | – | – | – | – | – | – | – | –
26 | O=C1c2ccccc2C(=O)c2c1nnn2-c1cc(F)c(-c2cccc(CO)c2F)c(F)c1 | 1.2 nM | 30 nM | 150 nM | > 10000 nM | > 10000 nM | > 10000 nM | > 10000 nM | > 10000 nM | > 10000 nM | solubility [2]: 17.6 µg/mL (≈ 40.4 µM)
27 | O=C1c2ccccc2C(=O)c2c1nnn2-c1ccncc1 | > 1000 nM | – | – | – | – | – | – | – | – | –
28 | COc1ccc2c(c1)C(=O)c1nnn(-c3cc(F)c(-c4ccccc4F)c(F)c3)c1C2=O | > 1000 nM | – | – | – | – | – | – | – | – | –
29 | CN(C)c1cccc(-c2c(F)cc(-n3nnc4c3C(=O)c3ccccc3C4=O)cc2F)c1 | 0.5 nM | 20 nM | 410 nM | 2020 nM | > 10000 nM | > 10000 nM | 2150 nM | > 10000 nM | > 10000 nM | solubility [2]: < 10 µg/mL
